Here are results for one compound from ChEMBL document CHEMBL1151634, “Phytochemical and biological screening of Saudi medicinal plants, Part 6. Isolation of 2 alpha-hydroxyalantolactone the antileukemic principle of Francoeuria crispa” (1984).

Common to all, as to assay type: functional
Assay [1] is described as follows: Cytotoxicity against human 9KB cells.
For a further assay, the system named is Staphylococcus aureus. The experiment in a line: Antibacterial activity against Staphylococcus aureus NCTC 6571 after overnight incubation by tube dilution method.
The nature of assay [2]: Cytotoxicity against mouse 9PS cells.
The subject of the next assay is P388. The experiment in a line: In vivo cytotoxicity against mouse P388 cells at 75 mg/kg relative to control.

Values after ≈ are worked out from the molar mass of the structure shown.

What is called MIC is the least concentration at which growth counts as inhibited. Lower therefore signals a more susceptible organism. Usually T/C stands for the result in the treated group divided by that in the control group, in per cent. On to `C=C1C(=O)O[C@@H]2C[C@@]3(C)C[C@@H](O)C[C@H](C)C3=C[C@H]12`, for which the Activity in assay [1] came out at 2 ×10⁻¹ ug/ml; in assay [2] it was 2 µg/mL. Further, the MIC against Staphylococcus aureus was 0.625 µg/mL (≈ 2.52 µM). The same compound returned a T/C in the assay on P388 of 123%.
